{
  "source": "patent US7411064B2",
  "about": "“1-Heterocyclylalkyl-3-sulfonylazaindole or -azaindazole derivatives as 5-hydroxytryptamine-6 ligands” (Wyeth, priority 2002, dated 2008)",
  "note": "Structures can show the parent of a compound that is named as a salt.",
  "data": [
    {"system": "not given", "units": {"melting point": "°C"}, "values": [
      {"compound": "O=S(=O)(c1ccccc1)c1cn(CC2CCCN2Cc2ccccc2)c2ncccc12", "note": "(stereo not shown) (as salt: hydrochloride) [Example 9]", "melting point": "218 to 220"},
      {"compound": "O=S(=O)(c1cccc(F)c1)c1cn(CC2CCCN2Cc2ccccc2)c2ncccc12", "note": "(stereo not shown) (as salt: hydrochloride) [Example 10]", "melting point": "128 to 129"},
      {"compound": "O=S(=O)(c1cccc(F)c1)c1cn(CC2CCCN2)c2ncccc12", "note": "(stereo not shown) (as salt: hydrochloride) [Example 11]", "melting point": "181 to 182"},
      {"compound": "CN1CCCC1Cn1cc(S(=O)(=O)c2cccc(F)c2)c2cccnc21", "note": "(stereo not shown) (as salt: hydrochloride) [Example 12]", "melting point": "208 to 209"},
      {"compound": "O=S(=O)(c1cn(CC2CCCN2)c2ncccc12)c1c(Cl)nc2sccn12", "note": "(stereo not shown) (as salt: hydrochloride) [Example 14]", "melting point": "246 to 247"},
      {"compound": "O=S(=O)(c1ccc(Cl)s1)c1cn(CC2CCCN2)c2ncccc12", "note": "(stereo not shown) (as salt: hydrochloride) [Example 15]", "melting point": "106 to 107"},
      {"compound": "O=S(=O)(c1cn(CC2CCCN2Cc2ccccc2)c2ncccc12)c1c(Cl)nc2sccn12", "note": "(stereo not shown) [Example 13]", "melting point": "102 to 103"}
    ]},
    {"target": "human cloned 5-HT6 receptors (Homo sapiens, UniProt P50406)", "sequence (P50406 whole entry)": "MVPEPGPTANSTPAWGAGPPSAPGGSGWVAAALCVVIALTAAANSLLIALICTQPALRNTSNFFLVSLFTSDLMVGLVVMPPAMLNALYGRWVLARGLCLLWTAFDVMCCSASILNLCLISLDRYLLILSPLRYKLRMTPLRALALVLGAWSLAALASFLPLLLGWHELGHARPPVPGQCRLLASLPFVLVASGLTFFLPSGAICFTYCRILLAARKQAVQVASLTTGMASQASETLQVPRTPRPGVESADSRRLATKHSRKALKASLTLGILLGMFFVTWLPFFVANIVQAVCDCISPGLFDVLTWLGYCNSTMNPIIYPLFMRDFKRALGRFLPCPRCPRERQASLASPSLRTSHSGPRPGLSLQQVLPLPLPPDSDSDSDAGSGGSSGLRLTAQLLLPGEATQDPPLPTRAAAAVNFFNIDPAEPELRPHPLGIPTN", "units": {"Ki": "µM"}, "values": [
      {"compound": "O=S(=O)(c1ccccc1)c1cn(C[C@H]2CCCN2)c2ncccc12", "note": "[Example 3, 3-(Phenylsulfonyl)-1-[(2R)-pyrrolidin-2-ylmethyl]-1H-pyrrolo[2,3-b]pyridine Hydrochloride]", "Ki": 0.012},
      {"compound": "O=S(=O)(c1ccccc1)c1cn(C[C@@H]2CCCN2)c2ncccc12", "note": "[Example 4, 3-(Phenylsulfonyl)-1-[(2S)-pyrrolidin-2-ylmethyl]-1H-pyrrolo[2,3-b]pyridine Hydrochloride]", "Ki": 0.066},
      {"compound": "O=S(=O)(c1cccc(Cl)c1)c1cn(CC2CCCN2Cc2ccccc2)c2ncccc12", "note": "(stereo not shown) [Example 6, 1-[(1-Benzylpyrrolidin-2-yl)methyl]-3-(3-chlorophenylsulfonyl)-1H-pyrrolo[2,3-b]pyridine]", "Ki": 0.132},
      {"compound": "O=S(=O)(c1cccc(Cl)c1)c1cn(CC2CCCN2)c2ncccc12", "note": "(stereo not shown) [Example 7, 3-(3-Chlorophenylsulfonyl)-1-(pyrrolidin-2-ylmethyl)-1H-pyrrolo[2,3-b]pyridine]", "Ki": 0.003},
      {"compound": "CN1CCCC1Cn1cc(S(=O)(=O)c2cccc(Cl)c2)c2cccnc21", "note": "(stereo not shown) [Example 8, 3-(3-Chlorophenylsulfonyl)-1-[(1-methylpyrrolidin-2-yl)methyl]-1H-pyrrolo[2,3-b]pyridine Hydrochloride]", "Ki": 0.007},
      {"compound": "O=S(=O)(c1ccccc1)c1cn(CC2CCCN2Cc2ccccc2)c2ncccc12", "note": "(stereo not shown) [Example 9]", "Ki": 0.163},
      {"compound": "O=S(=O)(c1cccc(F)c1)c1cn(CC2CCCN2Cc2ccccc2)c2ncccc12", "note": "(stereo not shown) [Example 10]", "Ki": 0.174},
      {"compound": "O=S(=O)(c1cccc(F)c1)c1cn(CC2CCCN2)c2ncccc12", "note": "(stereo not shown) [Example 11]", "Ki": 0.009},
      {"compound": "CN1CCCC1Cn1cc(S(=O)(=O)c2cccc(F)c2)c2cccnc21", "note": "(stereo not shown) [Example 12]", "Ki": 0.006},
      {"compound": "O=S(=O)(c1cn(CC2CCCN2Cc2ccccc2)c2ncccc12)c1c(Cl)nc2sccn12", "note": "(stereo not shown) [Example 13]", "Ki": 0.057},
      {"compound": "O=S(=O)(c1cn(CC2CCCN2)c2ncccc12)c1c(Cl)nc2sccn12", "note": "(stereo not shown) [Example 14]", "Ki": 0.002},
      {"compound": "O=S(=O)(c1ccc(Cl)s1)c1cn(CC2CCCN2)c2ncccc12", "note": "(stereo not shown) [Example 15]", "Ki": 0.007}
    ]}
  ]
}
